Usually inhibition stands for the share of the control response that was lost under treatment. The low end stands for a response near the control, the high end for a response far below the control. Broadly, the IC50 is the midpoint of a concentration-inhibition curve.

In patent US8952039B2, “Pyridone derivatives and their use in the treatment, ameloriation or prevention of a viral disease” (priority 2013, dated 2015) one finds inhibition and IC50 data, which are given here for 26 molecules.

The first assay has as its target T1, influenza A virus (IAV) PA-Nter fragment (amino acids 1-209) (Influenza A virus, UniProt P31343).
T1 construct: PA-Nter fragment (amino acids 1-209); made in house
The experiment in a line: FRET endonuclease activity assay. The class given is biochemical. Particulars: 10 μM compound; % reduction of v0 compared to untreated.
For `CC(C)NC(=O)c1c(O)c(=O)cc(CNS(=O)(=O)c2ccccc2)n1C`, 10 µM produced 13% inhibition.
Same read-out and setting: next, `CC(C)NC(=O)c1c(O)c(=O)cc(CNS(=O)(=O)c2cccc(Cl)c2)n1C`: 13%.
Still for that read-out and setting: as for `CC(C)NC(=O)c1c(O)c(=O)cc(CNS(=O)(=O)c2ccc(Cl)cc2)n1C`, the figure is 11%; as for `Cc1cccc(S(=O)(=O)NCc2cc(=O)c(O)c(C(=O)NC(C)C)n2C)c1`, 36%.
The same measure, in the same setting: as for `Cc1ccc(S(=O)(=O)NCc2cc(=O)c(O)c(C(=O)NC(C)C)n2C)cc1`, the figure is 8%; as for `CC(C)NC(=O)c1c(O)c(=O)ccn1C(C)Cc1ccccc1` (centres unmarked), 7%.
The molecule `CNC(=O)c1c(O)c(=O)cc(Cc2ccccc2-c2ccccc2)n1C` registered an inhibition at 10 µM of 10%.
`CC(C)NC(=O)c1c(O)c(=O)cc(Cc2ccccc2-c2ccccc2)n1C` returned an inhibition at 10 µM of 13%.
The molecule `Cn1c(Cc2ccccc2-c2ccccc2)cc(=O)c(O)c1C(N)=O` displayed an inhibition at 10 µM of 17%.
Still for that read-out and setting: as for `CNC(=O)c1c(O)c(=O)cc(CNS(=O)(=O)c2ccccc2)n1C`, the figure is 13%; as for `CNC(=O)c1c(O)c(=O)cc(CNS(=O)(=O)c2ccc(C)cc2)n1C`, 10%.
As for `CNC(=O)c1c(O)c(=O)cc(CNS(=O)(=O)c2cccc(C)c2)n1C`, 10 µM produced 33% inhibition.
In the case of `CNC(=O)c1c(O)c(=O)cc(CNS(=O)(=O)c2ccc(Cl)cc2)n1C`, the inhibition at 10 µM came out at 7%.
The molecule `CNC(=O)c1c(O)c(=O)cc(CNS(=O)(=O)c2cccc(Cl)c2)n1C` gave an inhibition at 10 µM of 23%.

Staying with this assay, now noted: calculated from initial reaction velocities (v0); 0.5 μM PA-Nter, 1.6 μM RNA substrate.
As for `Cn1c(CNS(=O)(=O)c2ccccc2)cc(=O)c(O)c1C(=O)O`, the IC50 was 560 nM.
On the same count and under the same terms, next, `Cn1c(CNS(=O)(=O)c2ccc(Cl)cc2)cc(=O)c(O)c1C(=O)O`: 1140 nM; `Cn1c(CNS(=O)(=O)c2cccc(Cl)c2)cc(=O)c(O)c1C(=O)O`: 150 nM.
With `Cn1c(CNS(=O)(=O)c2ccccc2Cl)cc(=O)c(O)c1C(=O)O`, the IC50 was 110 nM.
Same read-out and setting: as for `Cc1ccc(S(=O)(=O)NCc2cc(=O)c(O)c(C(=O)O)n2C)cc1`, the figure is 970 nM; as for `Cc1ccccc1S(=O)(=O)NCc1cc(=O)c(O)c(C(=O)O)n1C`, 280 nM.
On the same count and under the same terms, next, `Cc1cccc(S(=O)(=O)NCc2cc(=O)c(O)c(C(=O)O)n2C)c1`: 530 nM.
On the same count and under the same terms, as for `CC(C)NC(=O)c1c(O)c(=O)cc(CNS(=O)(=O)c2ccccc2Cl)n1C`, the figure is 6300 nM.
Take `Cc1ccccc1S(=O)(=O)NCc1cc(=O)c(O)c(C(=O)NC(C)C)n1C`: the IC50 was 4600 nM.
`Cn1c(Cc2ccccc2-c2ccccc2)cc(=O)c(O)c1C(=O)O`: the IC50 is 400 nM.
As to `CNC(=O)c1c(O)c(=O)cc(CNS(=O)(=O)c2ccccc2C)n1C`, the half-inhibitory concentration (IC50) was 12200 nM.
For the molecule `CNC(=O)c1c(O)c(=O)cc(CNS(=O)(=O)c2ccccc2Cl)n1C`, the IC50 was 9000 nM.
